One data set deals with A549 cells. Kind of data set: Apoptosis assay (PI / Annexin V-FITC) in A549 cells. The format is cell-based, human. The conditions noted are these: for live cells: lower left quadrant; for apoptotic cells: lower right quadrant; for late apoptotic or early necrosis cells: upper right quadrant; for cells experiencing the apoptotic pathway: A549, 48 h incubation (Figure S12). The method, then: (§1) In order to study the molecular biology effects of synthesized spiropyrrolidine heterocyclic hybrids, we have used the in vitro toxicology tests and for that, two different cell types, each of cancer and non-cancer origin were employed. The non-cancer cell lines include the L929 mouse fibroblasts and MCF10 breast cells, while the cancer cell lines are A549 human alveolar basal epithelial cells and Jurkat human T lymphocyte cells. […] All the biological studies were carried by selecting Camptothecin (CPT) as a positive control and the cells of no treatment as the negative control. The reason for selecting this particular compound as a positive control is that it is a well-known anticancer agent and acts by the mechanism of topoisomerase I inhibition along with the DNA cleavage, subsequent inhibition of litigation, and finally leads to DNA strand breaks. The detailed procedures for the cell culturing and assay protocols were mentioned elaborately in our earlier publications (Bwatanglang et al., [2016a],[b]; Kumar et al., [2018]). Each experiment was repeated thrice and the results expressed as the mean ± standard deviation of all the data values. From the graph, the ^* and ^** corresponds to p < 0.05 and p < 0.01 vs. the untreated-control measurements.
The compound 5e induced apoptotic pathway for A549 treated cells over a 24 h period is compared against the positive (CPT, 30 μM) and negative controls and the results are shown in Figure 3. Similarly, the apoptosis study over the 48 h exposure period is shown in the supporting information of Figure S12. As compared to the behavior of cells shown in Figures 3A-1,B-1, the compound 5e treated cells (C-1) are experiencing a significant amount of apoptotic pathway. […] These numbers for the compound 5e treated cells are getting shifted to 39% of live cells, 40% apoptotic, and 18% late apoptotic or early necrosis pathways. The observation of only 9% apoptotic cells for the CPT treated cells while 40% for the 5e treated cells provides a preliminary indication of the way of handling the cancer cells by the compound 5e. Since the CPT acts directly onto the cancer cells and responsible for the accidental or irreversible pathway of reducing the cancer cell number and however, the compound 5e works in a systematic way and induces the cancer cell death almost similar to CPT. […] Since the cells which are experiencing the apoptotic pathway can be reversible and in that way the healthy normal cells can be reverted to their normal stage and at the same time the cancer cells can be molded to the late apoptotic or early necrosis pathways by applying some physiological changes to the cells.
Figure 3 Comparison of the apoptosis assay results for 5e treated cells along with the CPT treated and untreated cells over 24 h period for A549 cells. From the figure, A-1 & A-2 corresponds to the negative control, B-1 & B-2 for the positive control of CPT, and C-1 & C-2 for our testing sample 5e.

The next data set concerns caspases in A549 cells. Kind of data set: Caspase activity by fluorescence microscopy in A549 cells. The format is cell-based, human. The conditions noted are these: A549, 24 h, 5e at IC50, compared with CPT treated cells (Figure 4B). As to the method: as §1, with “The detailed procedures for the cell culturing and assay protocols were mentioned elaborately in our earlier publications (Bwatanglang et al., [2016a],[b]; Kumar et al., [2018]).” left out, “From the graph, the ^* and ^** corresponds to p < 0.05 and p < 0.01 vs. the untreated-control measurements.” left out
Based on the results provided by the apoptotic assay, compound 5e was further tested toward the role of caspases as these are the proteins which get released in response to the specific death stimuli. […] Similarly, the observation of no such green fluorescence in the cytoplasm of cells shown in Figure 4A means that there is no initiation of such pathways in that particular culture.

For data set [1], the system named is A549 human alveolar basal epithelial cells. Kind of data set: MTT cell viability and proliferation assay, A549 cells. In kind it is cell-based. The method, then: as §1
(§2) Also, the loss of viability seems to be increased with an increase in the concentration and incubation period and this provides the preliminary information that the tested compounds are maintaining some levels of therapeutic behavior toward the cancer cells and if it can be guided carefully, can lead to the anticancer activity. […] This difference in the sensitivity of two cancer cells to the same testing compound can be attributed to the changes in the resistive response of each cell types which is supported by the intracellular protein mechanisms (Mohammad et al., [2014]; Bwatanglang et al., [2017]). Since the amount of intracellular proteins secreted by the cells are unique to each individual cell type and so in that way some cells may react very fast as compared to the others. Also, the efficiency of any chemotherapeutic agent is decided by its ability to reduce the cell count at the earliest possible time and in that way we have identified the A549 cells to be the highly responsive cell type to the compound 5e over a 24 h period as compared to the other compounds, cells, and time periods. The visual observation of cells by means of microscopic observation also be confirming for a decrease in the number of cells for the compound 5e treated cells as against the positive control of CPT (30 μM) and negative control of without any treatment (Figures S11, S11a). […] In a general way, our interest is with the therapeutic agent of higher efficiency at the shortest exposure period and so we carried the following mechanistic studies linked to the cell death for the compound 5e at the 24 h exposure period only.

The test system of data set [2] is Jurkat human T lymphocyte cells. Kind of data set: MTT cell viability and proliferation assay, Jurkat cells. In kind it is cell-based. The conditions noted are these: for IC50: Homo sapiens, MTT. The method, then: as §1, §2
A short description of data set [3]: MTT cell viability assay, non-cancer L929 cells. In kind it is cell-based. The conditions noted are these: mouse, L929 mouse fibroblast cells (non-cancer). As to the method: as §1, with “measurements. […]” for “measurements.”
In general terms: Tetrazolium assays rely on reduction of a dye to a coloured formazan, in cell work by metabolically active cells.

The nature of data set [4]: MTT cell viability assay, non-cancer MCF10 cells. In kind it is cell-based. The settings on record: human, MCF10 breast cells (non-cancer). As to the method:
as §1, with “measurements. […]” for “measurements.”

[5] abbreviates: A549, 24 h, 5e at IC50 (55 μM), CPT 30 μM.
Setting [6] is: 24 h incubation, read-out: IC50 μM (24 h) A549.
Where [7] appears, read: 48 h incubation, read-out: IC50 μM (48 h) A549.
[8] abbreviates: 24 h incubation, read-out: IC50 μM (24 h) Jurkat.
Setting [9] is: 48 h incubation, read-out: IC50 μM (48 h) Jurkat.

The structures appear in SMILES notation. Where two headings read alike, the source gives them in different places.

One may read the IC50 as the concentration at which inhibition is half-maximal. By mortality is commonly meant the percentage killed. A low value points to more survivors.

Regarding `COc1ccc(C2C([N+](=O)[O-])C(Cc3ccc(O)cc3)N(C)C23C(=O)c2cccc4cccc3c24)cc1` (stereo not shown) [5e, Spiro[acenaphthene-2′.2-pyrrolidin]-1′-one], in the data set on A549 cells (setting [5]), the live cells is reported as 39%, the apoptotic cells worked out at 40% and the “late apoptotic or early necrosis cells” value is recorded as 18%. Moreover, the “cells experiencing the apoptotic pathway” value in the data set with A549 cells is 88%. For the same molecule, the “caspase release (green fluorescence in cytoplasm)” value with caspases in A549 cells is “higher than the corresponding cells shown in Figure 4B”. Moreover, the half-inhibitory concentration (IC50) in data set [1] (setting [6]) was 55.2 ± 2.15 µM. The half-inhibitory concentration (IC50) in data set [1] (setting [7]) worked out at 20.5 ± 3.6 µM.
With `CN1C(Cc2ccc(O)cc2)C([N+](=O)[O-])C(c2cccc([N+](=O)[O-])c2)C12C(=O)c1cccc3cccc2c13` (stereo not shown) [5f, Spiro[acenaphthene-2′.2-pyrrolidin]-1′-one], the “loss of cell viability” value in data set [2] (highest concentration of 100 μM, 48 h) amounted to 90%.
On to `CN1C(Cc2ccc(O)cc2)C([N+](=O)[O-])C(c2ccccc2)C12C(=O)c1cccc3cccc2c13` (stereo not shown) [C00001], for which the 50% inhibitory concentration (IC50) turned out to be 65.6 ± 2.1 µM in data set [2] (setting [8]), 31.4 ± 2.3 µM in data set [2] (setting [9]), 84.2 ± 4.2 µM in data set [1] (setting [6]) and 68.5 ± 3.1 µM in data set [1] (setting [7]).
On the same counts, the results for `CN1C(Cc2ccc(O)cc2)C([N+](=O)[O-])C(c2ccc(Br)cc2)C12C(=O)c1cccc3cccc2c13` (stereo not shown) [C00002] are 82.4 ± 4 µM, 52.2 ± 3.5 µM, 79.5 ± 3.15 µM and 36.2 ± 4.5 µM.
Consider `CN1C(Cc2ccc(O)cc2)C([N+](=O)[O-])C(c2ccc(Cl)cc2)C12C(=O)c1cccc3cccc2c13` (stereo not shown) [C00003], for which the 50% inhibitory concentration (IC50) in data set [2] (setting [8]) was found to be 63.2 ± 3.2 µM; in data set [2] (setting [9]) it was 59.5 ± 4.1 µM; in data set [1] (setting [6]), 77.3 ± 4.56 µM; in data set [1] (setting [7]), 52.3 ± 2.2 µM.
The matching figures for `Cc1ccc(C2C([N+](=O)[O-])C(Cc3ccc(O)cc3)N(C)C23C(=O)c2cccc4cccc3c24)cc1` (stereo not shown) [C00004]: 78.2 ± 2.6 µM, 47.5 ± 3.8 µM, 82.1 ± 2.55 µM and 70.2 ± 2.8 µM.
As for `COc1ccc(C2C([N+](=O)[O-])C(Cc3ccc(O)cc3)N(C)C23C(=O)c2cccc4cccc3c24)cc1` (stereo not shown) [C00005], the values for the half-inhibitory concentration (IC50) in data set [2] (setting [8]) and in data set [2] (setting [9]) were 81.2 ± 3.1 µM and 61.2 ± 4.6 µM, respectively.
As to `CN1C(Cc2ccc(O)cc2)C([N+](=O)[O-])C(c2cccc([N+](=O)[O-])c2)C12C(=O)c1cccc3cccc2c13` (stereo not shown) [C00006], the IC50 in data set [2] (setting [8]) was 92.5 ± 2.8 µM; in data set [2] (setting [9]), 62.5 ± 4.4 µM; in data set [1] (setting [6]), 70.7 ± 3.45 µM; in data set [1] (setting [7]) it was 41.2 ± 2.4 µM.
As to `CC[C@@]1(O)C(=O)OCc2c1cc1n(c2=O)Cc2cc3ccccc3nc2-1` [CPT, Camptothecin], in the data set on A549 cells (setting [5]), the “M2 (cells experiencing the apoptotic pathway)” value turned out to be 48%, the live cells was determined as 45%, the apoptotic cells turned out to be 9% and the “late apoptotic or early necrosis cells” value is 36%. In the data set on A549 cells, the “cells experiencing the apoptotic pathway” value is recorded as 63%. For the same molecule, in data set [3], the mortality at 30 μM is around 50%. The mortality at 30 μM in data set [4] was around 50%.

The record behind these values is paper PMC7283928, “In vitro Mechanistic Exploration of Novel Spiropyrrolidine Heterocyclic Hybrids as Anticancer Agents” (Frontiers in Chemistry, 2020).
